Values quoted from earlier work, collected in patent US9750732B2, “Urinary triaosylceramide (Gb3) as a marker of cardiac disease” (Baylor Research Institute, priority 2009, dated 2017).
Like-named read-outs stand apart in the source and are kept apart here.

Key:
[1] = test system: APC: protein S; settings: exogenously added; in the presence but not absence of APC: protein S
[2] = test system: APC: protein S; settings: purified proteins
[3] = in multicomponent vesicles containing phosphatidylserine and phosphatidylcholine

Substance | clotting times of normal plasma [1] | inactivation of factor Va by APC: protein S ([2]; glycolipid alone) | inactivation of factor Va by APC: protein S [2, 3]
glycosylceramide [GlcCer] | dose-dependently prolonged clotting times | enhanced | enhanced
globotriaosylceramide [Gb3Cer] | dose-dependently prolonged clotting times |  | enhanced
lactosylceramide |  |  | enhanced
galactosylceramide |  |  | enhanced
